One compound from US20050107606A1 (published 2005) can be followed below.

Structures are written as SMILES.

In turn, `CCCn1cncc1CSc1ccc(NC(=O)C(F)(F)F)cc1` returned a melting point of 82 to 84 °C.
